Results taken from PubChem BioAssay (NCI).
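Step 1: Grow cells in 96-well plates. Step 2: Expose to compound for 48 hours at 5 concentrations. Step 3: Interpolate endpoints linearly; if unreached, use highest concentration. At the TGI there is no net growth.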

Tests used:
Experiment in all cases: growth of human tumour cells (NCI), 48 h
SW-620 colon = system: SW-620 colon
SK-OV-3 ovarian = system: SK-OV-3 ovarian
COLO 205 colon = system: COLO 205 colon
T-47D breast = system: T-47D breast
HOP-92 NSCLC = system: HOP-92 NSCLC
MDA-N = system: MDA-N
SK-MEL-2 melanoma = system: SK-MEL-2 melanoma
UACC-257 melanoma = system: UACC-257 melanoma
HT29 colon = system: HT29 colon
A549 NSCLC = system: A549 NSCLC
HS 578T breast = system: HS 578T breast
K-562 leukemia = system: K-562 leukemia
UACC-62 melanoma = system: UACC-62 melanoma
SK-MEL-28 melanoma = system: SK-MEL-28 melanoma
MOLT-4 leukemia = system: MOLT-4 leukemia
A498 renal = system: A498 renal
SF-268 CNS = system: SF-268 CNS
U251 CNS = system: U251 CNS
OVCAR-4 ovarian = system: OVCAR-4 ovarian
CAKI-1 renal = system: CAKI-1 renal
MALME-3M melanoma = system: MALME-3M melanoma
786-0 renal = system: 786-0 renal
SF-295 CNS = system: SF-295 CNS
RPMI-8226 leukemia = system: RPMI-8226 leukemia
SNB-19 CNS = system: SNB-19 CNS
DU-145 prostate = system: DU-145 prostate
OVCAR-3 ovarian = system: OVCAR-3 ovarian
NCI-H522 lung = system: NCI-H522 lung
HCT-116 colon = system: HCT-116 colon
UO-31 renal = system: UO-31 renal
HOP-62 NSCLC = system: HOP-62 NSCLC
OVCAR-8 ovarian = system: OVCAR-8 ovarian
MDA-MB-231 breast = system: MDA-MB-231 breast
NCI-H226 lung = system: NCI-H226 lung
SR leukemia = system: SR leukemia
SNB-75 CNS = system: SNB-75 CNS
NCI-H23 lung = system: NCI-H23 lung
NCI/ADR-RES ovarian = system: NCI/ADR-RES ovarian
NCI-H460 lung = system: NCI-H460 lung
SK-MEL-5 melanoma = system: SK-MEL-5 melanoma
HCC-2998 colon = system: HCC-2998 colon
LOX IMVI melanoma = system: LOX IMVI melanoma
PC-3 prostate = system: PC-3 prostate
CCRF-CEM leukemia = system: CCRF-CEM leukemia
OVCAR-5 ovarian = system: OVCAR-5 ovarian
RXF 393 renal = system: RXF 393 renal
HCT-15 colon = system: HCT-15 colon
ACHN renal = system: ACHN renal
IGROV1 ovarian = system: IGROV1 ovarian
MDA-MB-435 = system: MDA-MB-435
BT-549 breast = system: BT-549 breast
KM12 colon = system: KM12 colon
SN12C renal = system: SN12C renal
M14 melanoma = system: M14 melanoma
TK-10 renal = system: TK-10 renal

For `O=c1c2sc3nc(NCCN4CCCCC4)ncc3c2ncn1-c1ccccc1`, the TGI (SW-620 colon) was greater than 100 µM, the TGI (SK-OV-3 ovarian) was greater than 100 µM and the TGI (COLO 205 colon) was greater than 100 µM. The TGI (T-47D breast) was greater than 100 µM, the TGI (HOP-92 NSCLC) was 95.5 µM and the TGI (MDA-N) was greater than 100 µM. It also gave a TGI (SK-MEL-2 melanoma) greater than 100 µM, a TGI (UACC-257 melanoma) greater than 100 µM and a TGI (HT29 colon) greater than 100 µM. The TGI (A549 NSCLC) was greater than 100 µM, the TGI (HS 578T breast) was greater than 100 µM and the TGI (K-562 leukemia) was greater than 100 µM. It also gave a TGI (UACC-62 melanoma) greater than 100 µM, a TGI (SK-MEL-28 melanoma) greater than 100 µM and a TGI (MOLT-4 leukemia) greater than 100 µM. For the same compound, the TGI (A498 renal) was greater than 100 µM, the TGI (SF-268 CNS) was greater than 100 µM and the TGI (U251 CNS) was greater than 100 µM. It also gave a TGI (OVCAR-4 ovarian) greater than 100 µM, a TGI (CAKI-1 renal) greater than 100 µM and a TGI (MALME-3M melanoma) of 58.4 µM. For the same compound, the TGI (786-0 renal) was greater than 100 µM, the TGI (SF-295 CNS) was greater than 100 µM and the TGI (RPMI-8226 leukemia) was greater than 100 µM. It also gave a TGI (SNB-19 CNS) greater than 100 µM, a TGI (DU-145 prostate) greater than 100 µM and a TGI (OVCAR-3 ovarian) greater than 100 µM. The TGI (NCI-H522 lung) was greater than 100 µM, the TGI (HCT-116 colon) was greater than 100 µM and the TGI (UO-31 renal) was 49.9 µM. It also gave a TGI (HOP-62 NSCLC) greater than 100 µM, a TGI (OVCAR-8 ovarian) greater than 100 µM and a TGI (MDA-MB-231 breast) greater than 100 µM. For the same compound, the TGI (NCI-H226 lung) was greater than 100 µM, the TGI (SR leukemia) was greater than 100 µM and the TGI (SNB-75 CNS) was greater than 100 µM. For the same compound, the TGI (NCI-H23 lung) was greater than 100 µM, the TGI (NCI/ADR-RES ovarian) was greater than 100 µM and the TGI (NCI-H460 lung) was greater than 100 µM. The TGI (SK-MEL-5 melanoma) was 36.3 µM, the TGI (HCC-2998 colon) was greater than 100 µM and the TGI (LOX IMVI melanoma) was 41.9 µM. For the same compound, the TGI (PC-3 prostate) was greater than 100 µM, the TGI (CCRF-CEM leukemia) was greater than 100 µM and the TGI (OVCAR-5 ovarian) was greater than 100 µM. It also gave a TGI (RXF 393 renal) of 84.4 µM, a TGI (HCT-15 colon) greater than 100 µM and a TGI (ACHN renal) greater than 100 µM. It also gave a TGI (IGROV1 ovarian) greater than 100 µM, a TGI (MDA-MB-435) greater than 100 µM and a TGI (BT-549 breast) greater than 100 µM. For the same compound, the TGI (KM12 colon) was greater than 100 µM, the TGI (SN12C renal) was greater than 100 µM and the TGI (M14 melanoma) was 39.2 µM. The TGI (TK-10 renal) was greater than 100 µM.
